Reference: US20220409620A1, “REDUCING IMMUNOGENICITY TO PEGLOTICASE” (Horizon Pharma Rheumatology LLC, priority 2016, published 2022)

Test system: adult patients with uncontrolled gout
Assay: Health Assessment Questionnaire (HAQ-DI, HAQ pain, HAQ health), open-label study
Assay type: in vivo, human
Set-up: key to HAQ-Health, Observed, Median / HAQ-Health, Change from Baseline, Median: 0-100 scale; 0 = very well, 100 = very poor health; key to HAQ-DI, Observed, Median / HAQ-DI, Change from Baseline, Median: HAQ-DI scale 0-3; 0 = no difficulty, 3 = unable to do
Conditions: mITT Population
Method: Quality-of-Life Assessment: The HAQ was administered at the Screening and Week −4 or week −6 (prior to the first dose of MTX) Visits during the MTX Run-in Period for the open-label and randomized studies, respectively; prior to pegloticase infusion at the Day 1 and Weeks 14, 24 and 36 Visits or at the Day 1 and weeks 6, 14, 20, 24, 30, 36, and 44 visits during the Pegloticase+IMM Period for the open-label and randomized studies, respectively; at the End of Pegloticase Infusions Visit (if applicable), the Week 52/End of Study/Early Termination Visit and the Post Treatment Periods 3 and 6 Month Follow-up Visits (open-label study). The HAQ-DI is a self-report functional status instrument that can be filled out by a subject in less than 5 minutes and requires 1 minute to score. The index measures disability over the past week by asking a total of 20 questions covering 8 domains of function: dressing and grooming, arising, eating, walking, hygiene, reach, grip, and usual activities. There are at least 2 questions in each domain and the 8 domains represent a comprehensive set of functional activities. The HAQ-DI is calculated by scoring the answer to each question in the HAQ from 0 to 3, with 0 representing the ability to do without any difficulty, and 3 representing inability to do. Any activity that requires assistance from another individual or requires the use of an assistive device raises a 0 or 1 score to a 2. The highest score for each of the 8 domains is summed (range from 0 to 24) and divided by 8 to yield, on a scale with 25 possible values, a Functional Disability Index with a range from 0 to 3. The disability index is based on the number of domains answered and is computed only if the subject completes answers to at least 6 domains. The HAQ pain scale asks subjects to record how much pain they have had in the past week on a scale of 0 to 100, where zero represents “no pain” and 100 represents “severe pain”. The HAQ health scale is a measure of overall health. Subjects are asked to rate how well they are doing on a score of 0 to 100, where zero represents “very well” and 100 represents “very poor” health.

[1] = Early Termination Visit, Methotrexate Baseline
[2] = Early Termination Visit, Pegloticase Baseline
[3] = End of Pegloticase Infusions Visit, Methotrexate Baseline
[4] = End of Pegloticase Infusions Visit, Pegloticase Baseline

Question: For pegloticase, which “HAQ-DI, Change from Baseline, Mean (SD)” value (Day 1, Methotrexate Baseline) is on record?
Answer: The value was 0.1 (0.27).

Question: And the “HAQ-DI, Change from Baseline, Median” value (Day 1, Methotrexate Baseline)?
Answer: The value was 0.0.

Question: And the “HAQ-DI, Observed, Mean (SD)” value (Day 1, Methotrexate Baseline)?
Answer: Its value is 0.8 (0.77).

Question: What about the “HAQ-DI, Observed, Median” value (Day 1, Methotrexate Baseline) of the same substance?
Answer: The value was 0.5.

Question: What about the “HAQ-Health, Change from Baseline, Mean (SD)” value (“HAQ-Health, Change … (SD)” below) (Day 1, Methotrexate Baseline) of the same substance?
Answer: The value was −8.8 (38.29).

Question: What about the “HAQ-Health, Change from Baseline, Median” value (Day 1, Methotrexate Baseline) of the same substance?
Answer: Its value is 10.0.

Question: And the “HAQ-Health, Observed, Mean (SD)” value (Day 1, Methotrexate Baseline)?
Answer: Its value is 37.8 (27.06).

Question: And the “HAQ-Health, Observed, Median” value (Day 1, Methotrexate Baseline)?
Answer: The value was 25.0.

Question: What about the “HAQ-Pain, Change from Baseline, Mean (SD)” value (“HAQ-Pain, Change … (SD)” for short) (Day 1, Methotrexate Baseline) of the same substance?
Answer: Its value is 2.3 (19.93).

Question: What about the “HAQ-Pain, Change from Baseline, Median” value (Day 1, Methotrexate Baseline) of the same substance?
Answer: Its value is 0.0.

Question: And the “HAQ-Pain, Observed, Mean (SD)” value (Day 1, Methotrexate Baseline)?
Answer: Its value is 42.5 (22.24).

Question: What about the “HAQ-Pain, Observed, Median” value (Day 1, Methotrexate Baseline) of the same substance?
Answer: The value was 40.0.

Question: What about the “HAQ-DI, Change from Baseline, Mean (SD)” value [1] of the same substance?
Answer: Its value is 0.2 (0.90).

Question: And the “HAQ-DI, Change from Baseline, Median” value [1]?
Answer: The value was −0.3.

Question: What about the “HAQ-DI, Observed, Mean (SD)” value [1] of the same substance?
Answer: Its value is 0.7 (0.51).

Question: What about the “HAQ-DI, Observed, Median” value [1] of the same substance?
Answer: Its value is 0.6.

Question: What about the “HAQ-Health, Change … (SD)” value [1] of the same substance?
Answer: The value was −0.7 (16.77).

Question: And the “HAQ-Health, Change from Baseline, Median” value [1]?
Answer: The value was 8.0.

Question: And the “HAQ-Health, Observed, Mean (SD)” value [1]?
Answer: Its value is 28.3 (40.72).

Question: And the “HAQ-Health, Observed, Median” value [1]?
Answer: Its value is 10.0.

Question: What about the “HAQ-Pain, Change … (SD)” value [1] of the same substance?
Answer: The value was 19.0 (36.51).

Question: And the “HAQ-Pain, Change from Baseline, Median” value [1]?
Answer: Its value is 7.0.

Question: What about the “HAQ-Pain, Observed, Mean (SD)” value [1] of the same substance?
Answer: Its value is 46.7 (40.41).

Question: What about the “HAQ-Pain, Observed, Median” value [1] of the same substance?
Answer: Its value is 40.0.

Question: What about the “HAQ-DI, Change from Baseline, Mean (SD)” value [2] of the same substance?
Answer: Its value is 0.2 (0.56).

Question: What about the “HAQ-DI, Change from Baseline, Median” value [2] of the same substance?
Answer: Its value is 0.1.

Question: What about the “HAQ-DI, Observed, Mean (SD)” value [2] of the same substance?
Answer: The value was 0.7 (0.51).

Question: And the “HAQ-DI, Observed, Median” value [2]?
Answer: The value was 0.6.

Question: What about the “HAQ-Health, Change … (SD)” value [2] of the same substance?
Answer: The value was −11.7 (62.52).

Question: And the “HAQ-Health, Change from Baseline, Median” value [2]?
Answer: The value was −10.0.

Question: What about the “HAQ-Health, Observed, Mean (SD)” value [2] of the same substance?
Answer: The value was 28.3 (40.72).

Question: And the “HAQ-Health, Observed, Median” value [2]?
Answer: The value was 10.0.

Question: What about the “HAQ-Pain, Change … (SD)” value [2] of the same substance?
Answer: Its value is 0.0 (45.83).

Question: And the “HAQ-Pain, Change from Baseline, Median” value [2]?
Answer: Its value is −10.0.

Question: And the “HAQ-Pain, Observed, Mean (SD)” value [2]?
Answer: The value was 46.7 (40.41).

Question: What about the “HAQ-Pain, Observed, Median” value [2] of the same substance?
Answer: The value was 40.0.

Question: What about the “HAQ-DI, Change from Baseline, Mean (SD)” value [3] of the same substance?
Answer: Its value is −0.1 (0.35).

Question: What about the “HAQ-DI, Change from Baseline, Median” value [3] of the same substance?
Answer: The value was −0.1.

Question: And the “HAQ-DI, Observed, Mean (SD)” value [3]?
Answer: Its value is 0.1 (0.18).

Question: What about the “HAQ-DI, Observed, Median” value [3] of the same substance?
Answer: Its value is 0.1.

Question: What about the “HAQ-Health, Change … (SD)” value [3] of the same substance?
Answer: The value was −80.0 (0.00).

Question: What about the “HAQ-Health, Change from Baseline, Median” value [3] of the same substance?
Answer: The value was −80.0.

Question: What about the “HAQ-Health, Observed, Mean (SD)” value [3] of the same substance?
Answer: The value was 0.0 (0.00).

Question: What about the “HAQ-Health, Observed, Median” value [3] of the same substance?
Answer: The value was 0.0.

Question: What about the “HAQ-Pain, Change … (SD)” value [3] of the same substance?
Answer: The value was 2.5 (74.25).

Question: What about the “HAQ-Pain, Change from Baseline, Median” value [3] of the same substance?
Answer: Its value is 2.5.

Question: What about the “HAQ-Pain, Observed, Mean (SD)” value [3] of the same substance?
Answer: The value was 40.0 (56.57).

Question: What about the “HAQ-Pain, Observed, Median” value [3] of the same substance?
Answer: The value was 40.0.

Question: What about the “HAQ-DI, Change from Baseline, Mean (SD)” value [4] of the same substance?
Answer: Its value is −0.1 (0.35).

Question: And the “HAQ-DI, Change from Baseline, Median” value [4]?
Answer: Its value is −0.1.

Question: And the “HAQ-DI, Observed, Mean (SD)” value [4]?
Answer: The value was 0.1 (0.18).

Question: And the “HAQ-DI, Observed, Median” value [4]?
Answer: Its value is 0.1.

Question: What about the “HAQ-Health, Change … (SD)” value [4] of the same substance?
Answer: Its value is −45.0 (49.50).

Question: What about the “HAQ-Health, Change from Baseline, Median” value [4] of the same substance?
Answer: The value was −45.0.

Question: What about the “HAQ-Health, Observed, Mean (SD)” value [4] of the same substance?
Answer: The value was 0.0 (0.00).

Question: What about the “HAQ-Health, Observed, Median” value [4] of the same substance?
Answer: The value was 0.0.

Question: What about the “HAQ-Pain, Change … (SD)” value [4] of the same substance?
Answer: Its value is 2.5 (74.25).

Question: And the “HAQ-Pain, Change from Baseline, Median” value [4]?
Answer: Its value is 2.5.

Question: What about the “HAQ-Pain, Observed, Mean (SD)” value [4] of the same substance?
Answer: Its value is 40.0 (56.57).

Question: What about the “HAQ-Pain, Observed, Median” value [4] of the same substance?
Answer: Its value is 40.0.

Question: What about the “HAQ-DI, Change from Baseline, Mean (SD)” value (Week 14, Methotrexate Baseline) of the same substance?
Answer: The value was −0.2 (0.77).

Question: What about the “HAQ-DI, Change from Baseline, Median” value (Week 14, Methotrexate Baseline) of the same substance?
Answer: Its value is 0.0.

Question: And the “HAQ-DI, Observed, Mean (SD)” value (Week 14, Methotrexate Baseline)?
Answer: Its value is 0.5 (0.41).

Question: What about the “HAQ-DI, Observed, Median” value (Week 14, Methotrexate Baseline) of the same substance?
Answer: Its value is 0.5.

Question: And the “HAQ-Health, Change … (SD)” value (Week 14, Methotrexate Baseline)?
Answer: The value was −12.5 (36.79).

Question: What about the “HAQ-Health, Change from Baseline, Median” value (Week 14, Methotrexate Baseline) of the same substance?
Answer: Its value is −5.0.

Question: What about the “HAQ-Health, Observed, Mean (SD)” value (Week 14, Methotrexate Baseline) of the same substance?
Answer: The value was 36.6 (33.87).

Question: And the “HAQ-Health, Observed, Median” value (Week 14, Methotrexate Baseline)?
Answer: Its value is 16.5.

Question: And the “HAQ-Pain, Change … (SD)” value (Week 14, Methotrexate Baseline)?
Answer: Its value is −13.9 (30.48).

Question: And the “HAQ-Pain, Change from Baseline, Median” value (Week 14, Methotrexate Baseline)?
Answer: The value was −12.5.

Question: And the “HAQ-Pain, Observed, Mean (SD)” value (Week 14, Methotrexate Baseline)?
Answer: The value was 27.1 (26.25).

Question: What about the “HAQ-Pain, Observed, Median” value (Week 14, Methotrexate Baseline) of the same substance?
Answer: The value was 15.0.

Question: And the “HAQ-DI, Change from Baseline, Mean (SD)” value (Week 14, Pegloticase Baseline)?
Answer: The value was −0.3 (0.80).

Question: What about the “HAQ-DI, Change from Baseline, Median” value (Week 14, Pegloticase Baseline) of the same substance?
Answer: Its value is 0.0.

Question: And the “HAQ-DI, Observed, Mean (SD)” value (Week 14, Pegloticase Baseline)?
Answer: Its value is 0.5 (0.41).

Question: What about the “HAQ-DI, Observed, Median” value (Week 14, Pegloticase Baseline) of the same substance?
Answer: Its value is 0.5.

Question: What about the “HAQ-Health, Change … (SD)” value (Week 14, Pegloticase Baseline) of the same substance?
Answer: Its value is −4.3 (43.82).

Question: And the “HAQ-Health, Change from Baseline, Median” value (Week 14, Pegloticase Baseline)?
Answer: The value was −1.0.
